Key:
[1] = test system: histamine-induced death in guinea pigs; assay: Protection against histamine-induced death after oral pretreatment; type: in vivo
[2] = target: T1, H₁-receptor (Cavia porcellus, UniProt P31389); assay: Reduction of histamine-induced contraction of isolated guinea pig ileum; type: cell-based, guinea pigs; settings: test drug 1 × 10⁻⁷M in the presence of histamine 1 × 10⁻⁶M; guinea pig terminal ileum; quadruplicate sets of tissues; read-out: percent reduction in tissue contraction
T1 construct: Fresh segments of terminal ileum immediately proximal to Peyer's patch, obtained from male Buckshire guinea pigs; from tissue; host or cells: guinea pig terminal ileum segments
Procedure: The compounds of this invention were established to be histamine H₁-antagonists by subjecting them to the following standard test procedures for H₁-blocking activity:
Fresh segments of terminal ileum immediately proximal to Peyer's patch, obtained from male Buckshire guinea pigs, were suspended in 37°C Tyrode's solution in a tissue bath and aerated. The tissue segments were placed under one gram tension and allowed to equilibrate for one hour. Histamine was added to each tissue bath to a final concentration of 1 × 10⁻⁶M. The contraction response after it equilibrated was noted as grams tension. Test drug was added, in the presence of histamine, to each bath to a final concentration of 1 × 10⁻⁷M. The change in grams tension was noted and the percent reduction in grams tension calculated.

[3] = target: T1, H₁-receptor; assay: Shift of the histamine dose-response curve in ileum tissue; type: cell-based, guinea pigs; settings: ileum tissues

T1 sequence (P31389 whole entry): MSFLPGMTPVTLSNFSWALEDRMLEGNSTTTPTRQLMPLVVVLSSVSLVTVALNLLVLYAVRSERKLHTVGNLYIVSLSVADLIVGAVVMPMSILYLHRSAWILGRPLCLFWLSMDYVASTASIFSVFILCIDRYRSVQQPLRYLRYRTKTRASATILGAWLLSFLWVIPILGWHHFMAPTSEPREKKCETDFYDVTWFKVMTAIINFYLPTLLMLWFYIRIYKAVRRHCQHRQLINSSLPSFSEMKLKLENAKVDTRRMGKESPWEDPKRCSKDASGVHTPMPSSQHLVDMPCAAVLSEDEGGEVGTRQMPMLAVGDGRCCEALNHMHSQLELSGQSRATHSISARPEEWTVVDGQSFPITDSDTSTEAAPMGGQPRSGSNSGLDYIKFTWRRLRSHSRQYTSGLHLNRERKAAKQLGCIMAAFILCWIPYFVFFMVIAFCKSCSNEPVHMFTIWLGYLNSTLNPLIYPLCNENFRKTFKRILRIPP

Structure (SMILES)	Percent Survival ([1]; 0.5 mg/kg p.o., 18 Hours pretreatment, Trial5) [%]	Percent Survival ([1]; 0.5 mg/kg p.o., 18 Hours pretreatment, Trial 6) [%]	Percent Survival ([1]; 1.0 mg/kg p.o., 1 Hour pretreatment, Trial 1) [%]	Percent Survival ([1]; 1.0 mg/kg p.o., 1 Hour pretreatment, Trial 2) [%]	Percent Survival ([1]; 1.0 mg/kg p.o., 1 Hour pretreatment, Trial 3) [%]	Percent Survival ([1]; 1.0 mg/kg p.o., 2 Hours pretreatment, Trial 3) [%]	Percent Survival ([1]; 1.0 mg/kg p.o., 2 Hours pretreatment, Trial 4) [%]	Percent Survival ([1]; 1.0 mg/kg p.o., 18 Hours pretreatment, Trial5) [%]	Percent Survival ([1]; 5.0 mg/kg p.o., 1 Hour pretreatment, Trial 1) [%]	Percent Survival ([1]; 10.0 mg/kg p.o., 2 Hours pretreatment, Trial 4) [%]	inhibition at 0.1 µM [2] [%]	Kb ([3]; calculated via formula from the dose-response curve shift at 10⁻⁸M compound, read-out: histamine H₁antagonist potency) [nM]	shift of histamine dose-response curve ([3]; compound at 10⁻⁸M)
Cn1c(=O)c2c(ncn2CCCN2CCC(OC(c3ccccc3)c3ccccc3)CC2)n(C)c1=O [Example 1, 7-[3-(4-Diphenylmethoxy)-1-piperidinyl]propyl-3,7-dihydro-1,3-dimethyl-1H-purine-2,6-dione]	70	40	40	10	40	70	70	80	80	60	92	0.29	marked, parallel shift of the curve to the right
Cn1c(=O)c2c(ncn2CCN2CCC(OC(c3ccc(F)cc3)c3ccc(F)cc3)CC2)n(C)c1=O [Example 4, 7-[2-[4-Bis(4-fluorophenyl)methoxy]-1-piperidinyl]ethyl-3,7-dihydro-1,3-dimethyl-1H-purine-2,6-dione]											62		
